We go through ten molecules from patent publication US7906477B2 (Genspera, Inc., priority 2002, dated 2011).

In series [1] the test system is human prostate cancer cells. The following applies: human prostate cancer cells in vitro; cited from earlier work.
Series [2] can be described thus: plasma stability in 50% human plasma. The following applies: 50% fresh heparinized plasma, 24 hours, room temperature, HPLC and MALDI-TOF. Type of series: in vitro ADME. The method, then: FIG. 5 depicts the stability of Ac-GKAFRR-L12ADT (SEQ ID NO:41) in human plasma after a 24 hour incubation, as determined by HPLC analysis. Ac-GKAFRR-L12ADT (SEQ ID NO:41) was incubated in 50% human plasma for 24 hours at room temperature. Peak 1 represents an unidentified plasma contaminant that was also present in control plasma. Peaks 2 and 3 both represent Ac-GKAFRR-L12ADT (SEQ ID NO:41) as confirmed by MALDI-TOF mass spectrometric analysis.
Mouse plasma was obtained from cardiac puncture of anesthetized mice prior to euthanization by CO2 overdose according to protocols approved by the Johns Hopkins Animal Care and Use Committee. Human plasma was obtained from discarded, pooled, and unlabeled clinical samples. Plasma was diluted to 50% in Tris buffer (50 mM Tris-HCl, 100 mM NaCl, pH 7.8). To this, test peptides/prodrugs were added to 250 or 500 μM final concentration. After the incubation period, one volume (200 μl) of acetonitrile was added to precipitate the protein fraction and the tube was centrifuged at 14,000 for 2 min. The supernatant was analyzed by C18-HPLC and the collected peaks were analyzed by MALDI-TOF as described above.
Arginine-containing peptides are potential substrates for the wide variety of other trypsin-like proteases that are present in the blood and may have residual activity in the blood. The plasma stability of an hK2 peptide substrate may therefore be limited and this would have significant consequences related to the development of an hK2 activated prodrug. Therefore, two fluorescence quenched hK2 peptide substrates peptides were incubated in 50% mouse or human plasma (diluted in PBS buffer) to determine stability using a plate-reader. As observed with arginine containing peptides from the SPOT analysis above, none of the arginine-containing, fluorescence quenched hK2peptide substrates were stable in human or mouse plasma. Fluorescence-quenched Y′GKAFRR-Dap-GK′ (SEQ ID NO:42) and Y′GKAFRRLGK′ (SEQ ID NO:21) (500 μM each) were hydrolyzed when incubated in 50% mouse or human plasma (FIG. 7). Mouse plasma degraded the peptides faster than human plasma (FIG. 7). […] In human plasma, more peptide remained after 3 hours (˜25%). […] The proteolytic activity from plasma was never affected by repeated freeze-thaw cycles or by storage of the mouse plasma alone at room temperature for several days.
To determine the plasma stability for the hK2 prodrug, the prodrug was incubated in 50% fresh heparinized (1%) plasma for 24 hours at room temperature, precipitated the proteins by adding one volume of 1% TFA in acetonitrile and analyzed the supernatant by HPLC. Unexpectedly, BPLC analysis after 24 hrs incubation in plasma yielded only a single peak corresponding to the hK2 prodrug (FIG. 5). MALDI-TOF MS of the isolated single peak confirmed the stability of the molecule.

For the next series, the system named is Balb-C mice. Kind of series: in vivo toxicity, single and repeated intravenous injection. Further details: species or system mouse. The method, then: To determine in vivo toxicity of ac-GKAFRR-L12ADT (SEQ ID NO:41), Balb-C mice (Harlan) received a single intravenous injection of an increasing dose of prodrug. Mice were monitored for toxicity hourly for twelve hours and then daily×one week. Separate groups of three mice each received increasing doses of ac-GKAFRRL12ADT (SEQ ID NO:41). […] All animals receiving doses less than LD100 were alive and well up to 1 week after receiving a single dose. All procedures were performed according to protocols approved by the Johns Hopkins Animal Care and Use Committee.
Balb-C mice were treated in groups of 3with a single intravenous injection of increasing doses of the ac-GKAFRR-L12ADT (SEQ ID NO:41) prodrug to establish the dose that killed 100% of mice (i.e. LD100). […] All mice, however, tolerated a single intravenous dose of 3.67 μmoles/kg and this dose was then used for further dosing and pharmacokinetic studies.

Series [3] is described as follows: pharmacokinetics after single intravenous dose, plasma levels by LC/MS/MS. The format is in vivo, mouse. The following applies: Balb-C mice, single intravenous dose 3.67 μmoles/kg. The method, then:
FIG. 9 depicts pharamacokinetic analysis of GKAFRR-L12ADT (SEQ ID NO:44) following single intravenous injection of 3.67 μmole/kg. Mice were treated in groups of 3 and then sacrificed at indicated time points. Data represent average±standard error of plasma concentrations as determined by LC-MS analysis.
Calibration standards consisted of ac-GKAFRR-L12ADT prodrug, RL12ADT or L12ADT spiked into mouse plasma and plasma samples from treated mice were analyzed by liquid chromatography coupled to a quadrupolequadripole mass spectrometer (LC/MS/MS) [PESciex API 3000]. A multistep gradient elution HPLC method was used to separate the ac-GKAFRR-L12ADT prodrug from the free RL12ADT and L12ADT with eluent A=2 mM ammonium acetate with 0.1% formic acid 1% acetic acid in deionized water and eluent B=90% acetonitrile/1% acetic acid/[…]. Samples were eluted through a Zorbax SB-C18 Rapid Resolution column (2/1×30 mm, 3.5 μm) at a flow rate of 0.3 ml/min and gradient of 100% A to 100% B over 12 minutes. Calibration was done using extracted standards of ac-GKAFRR-L12ADT added to and then extracted from mouse plasma in a range of 0.001-10 μM, and linear regression analysis was used to generate best-fit lines, from which peak areas of samples were converted to concentration of prodrug. Peak areas of RL12ADT and L12ADT were below limit of detection at all time points and, therefore, calibration was not performed. Single-dose pharmacokinetics were assessed by noncompartmental analysis (Gibaldi, M. and Perroer, D. Pharmacokinetics, 2nd edition, p. 407-409. New York, 1982) The area under the curve from time zero to infinity (AUC0-∞) was calculated with the linear trapezoidal method (Gibaldi, M. and Perroer, D. Pharmacokinetics, 2nd edition, p. 407-409. New York, 1982)). The terminal half-life (T1/2) was determined from the terminal slope (ke) on a log-linear plot of concentration versus time.
To determine pharmacokinetic parameters for the hK2-activated thapsigargin prodrug, Balb-C mice (n=3/timepoint) were treated with a single intravenous dose of 3.67 μmoles/kg of the ac-GKAFRR-L12ADT (SEQ ID NO:41) prodrug. At various time points (5, 10, 30 minutes and 1, 1.5, 2, 3, 4, 6, 12, 24 hrs) mice were sacrificed after blood was obtained by cardiac puncture. After precipitating serum proteins with acetonitrile, supernatants were evaluated by LC-MS to determine concentrations of ac-GKAFRR-L12ADT (SEQ ID NO:41), R-L12ADT and L12ADT at each time points. Areas under the curve were converted to concentrations based on a standard curve that was linear for concentrations ranging from 1 nM to 10,000 nM. […] Both RL12ADT and L12ADT were below the lower limit of detection (i.e. <1 nM) for all time points, FIG. 6.

In the next series the test system is Cathepsin B. Put plainly: Cathepsin B, 1 μg/ml.
In a further series the test system is Cathepsin D. Put plainly: Cathepsin D, 1 μg/ml.
A further series relates to Plasmin. Put plainly: Plasmin, 1 μg/ml.
A further series has as its system Urokinase. Kind of series: Urokinase, 1 μg/ml.
For series [4], the system named is hK2. Kind of series: hK2 (4 μg/ml) in 50 mM Tris, 0.1 M NaCl, pH 7.8. The following applies: human, room temperature, up to 24 hours.
A short description of series [5]: 50% fresh heparinized (1%) plasma; 50% human plasma. The following applies: room temperature, up to 24 hours.
Series [6] has as its target T1, hK2 (Homo sapiens, UniProt P20151).
T1 construct: made in house
The following applies: previously reported; cited from earlier work.

In series [7] the target is T1, hK2. Put plainly: on-bead digestion of PEGA-bound fluorescence-quenched peptides by hK2. Type of series: biochemical. The following applies: 4 μg/ml hK2, PEGA resin. Here is the method: For screening, approximately 1 ml of resin (˜65,000 beads) was first suspended in methanol in a Petri dish and examined under transilluminant UV light (302 nm) to detect any falsely positive fluorescent beads prior to addition of protease. After removal of ˜40-50 beads, the resin was washed with water and finally suspended in 10 ml buffer in a glass Petri dish. After a final screen for false-positives, hK2 was added from a frozen stock solution to make 4 μg/ml final. Fluorescent beads were selected and removed with a micropipette, washed with 1 M NaCl, water, DMF, MeOH, water and stored in MeOH at −20° C.
Additionally, Walle and co-workers (Thorpe, D. S. and Walle, S. (2000) Biochem. Biophys. Res. Commun. 269:591-595) published data from a small combinatorial library to find linkers for the optimal display of peptide ligands to various protein targets. They reported that the insertion of a dipeptide consisting of a cationic residue together with a hydrophobic residue presents a general method for optimizing peptide display on solid phase beads. […] The test peptide Y′GKAFRL-Dap-F-K′-PEGA (SEQ ID NO:53) was synthesized and observed that the time required to generate clearly detectable fluorescence on the beads was reduced to 4-5 hours compared to 10-12 hours for the same peptide sequence lacking the Dap-F linker. […]

Series [8] deals with hK2. Put plainly: 8 μg/ml hK2 in PBS buffer. The following applies: human.
For series [9], the system named is hK2. Put plainly: hK2, fluorescence-quenched peptides tested in solution. The following applies: human, up to prolonged incubation.
Where [10] appears, read: five consecutive daily intravenous injections of 3.67 μmoles/kg.

Square brackets hold non-standard residues; d marks the D form. Ends that are not written are not given here. Peptide text beside a SMILES is read from it. * marks the point of attachment. X1 = C/C=C(/C)C(=O)O[C@H]1C(C)=C2[C@H]([C@@H]1OC(=O)CCCCCCC)[C@@](C)(OC(C)=O)C[C@H](OC(=O)CCCCCCCCCCCN*)[C@@]1(O)[C@H]2OC(=O)[C@@]1(C)O; Tyr(3-NO2) = N[C@@H](Cc1ccc(O)c([N+](=O)[O-])c1)C(=O)O; AMC = Cc1cc(=O)oc2cc(N*)ccc12; Abz = aminobenzoic acid; Dap = NC[C@H](N)C(=O)O Some results are limits rather than exact numbers.

T1 sequence (P20151 25-261): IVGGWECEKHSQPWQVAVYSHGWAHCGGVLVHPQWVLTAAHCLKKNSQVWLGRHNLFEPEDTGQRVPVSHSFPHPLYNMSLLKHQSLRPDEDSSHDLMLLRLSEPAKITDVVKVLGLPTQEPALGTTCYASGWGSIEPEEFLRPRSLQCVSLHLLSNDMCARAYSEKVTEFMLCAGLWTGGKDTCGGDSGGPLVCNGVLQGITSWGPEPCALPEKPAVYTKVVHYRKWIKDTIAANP

Regarding `CC=C(C)C(=O)OC1C(C)=C2C(C1OC(=O)CCCCCCC)C(C)(OC(C)=O)CC(OC(=O)CCCCCCCCCCCNC(=O)C(N)CC(C)C)C1(O)C2OC(=O)C1(C)O` [L12ADT, 8-O-(12-[L-leucinoylamino]dodecanoyl)-8-O-debutanoylthapsigargin], in series [1], the LD50 is ~30 nM.

Regarding `C/C=C(/C)C(=O)O[C@H]1C(C)=C2[C@H]([C@@H]1OC(=O)CCCCCCC)[C@@](C)(OC(C)=O)C[C@H](OC(=O)CCCCCCCCCCCNC(=O)[C@H](CC(C)C)NC(=O)[C@H](CCCNC(=N)N)NC(=O)[C@H](CCCNC(=N)N)NC(=O)[C@H](Cc1ccccc1)NC(=O)[C@H](C)NC(=O)[C@H](CCCCN)NC(=O)CNC(C)=O)[C@@]1(O)[C@H]2OC(=O)[C@@]1(C)O` [ac-GKAFRR-L12ADT] (Ac-GKAFRRL-X1), the “plasma stability of the prodrug (in words)” value in series [2] is on record as “No degradation products could be identified”. Also, the “single intravenous dose tolerated by all mice” value in the series with Balb-C mice (Balb-C mice, single intravenous dose) is 3.67 µmol/kg. In addition, in the series on Balb-C mice (setting [10]), the “toxicity of repeated dosing (in words)” value is recorded as “without any deaths or observable toxicity” and the “weight loss over baseline” value is given as < 15%. Further, the “stability in the serum in vivo (in words)” value in [3] was “highly stable to hydrolysis in the serum in vivo”. In series [3] (mouse, plasma), this molecule had a half-life of 40.7 ± 1.2 min and a Cmax of 36.8 ± 7.2 µM. Moreover, in series [3] (mouse, plasma, read-out: area under the curve (converted)), the AUC(0-inf) is 40.7 µM·h.

As to Abz-GKAFRRLY′, the not cleaved entry in the series on Cathepsin B and with Cathepsin D was “No appreciable hydrolysis; relative rate 1 (approximately 0.1% digestion in 1 hour)” throughout.

In the case of Ac-GKAFRR-L12ADT, the values for the cleaved bond result in the series with Plasmin and with hK2 [4] were “arginine-arginine” and “Arg-Leu”, respectively. Also, the not cleaved entry is “no activity on the prodrug; relative rate 1 (approximately 0.1% digestion in 1 hour)” in the series with Urokinase, “No appreciable hydrolysis; relative rate 1 (approximately 0.1% digestion in 1 hour)” in the series with Cathepsin B, “No appreciable hydrolysis; relative rate 1 (approximately 0.1% digestion in 1 hour)” in the series on Cathepsin D and “only a single peak corresponding to the hK2 prodrug after 24 hrs; no degradation products” in [5].

Consider Pro-Phe-Arg-{AMC}, for which, on hK2 [6], the Km is 40 µM and the kcat is 0.92 s⁻¹.

Turning to “Y′GKAFRL-Dap-F-K′-PEGA: test peptide on PEGA resin with Dap-F linker ([Tyr(3-NO2)]GKAFRL[Dap]FK(Abz)-{PEGA resin})”, the “incubation time to yield clearly detectable fluorescent beads” value with hK2 [7] lay in the range of 4 to 5 h.

With “Y′GKAFRLK′-PEGA: test hK2 peptide substrate on PEGA resin ([Tyr(3-NO2)]GKAFRLK(Abz)-{PEGA resin})”, in the series with hK2 [7], the “incubation time to yield clearly detectable fluorescent beads” value was 10 to 12 h.

As to Y′GSKGHFKL-Dap-F-K′, in the series with hK2 [8], the not cleaved result is on record as “did not show any hydrolysis”.

For Y′GSKGHFKL-Dap-K′, the not cleaved result in the series on hK2 [9] was “not digested by hK2, even after prolonged incubation”.

On to Y′GSKGPFKL-Dap-K′, for which the not cleaved result in the series with hK2 [9] was “not digested by hK2, even after prolonged incubation”.
